In one test the target is T1, Endothelin-1 receptor (Homo sapiens, UniProt P25101).
T1 sequence (P25101 whole entry): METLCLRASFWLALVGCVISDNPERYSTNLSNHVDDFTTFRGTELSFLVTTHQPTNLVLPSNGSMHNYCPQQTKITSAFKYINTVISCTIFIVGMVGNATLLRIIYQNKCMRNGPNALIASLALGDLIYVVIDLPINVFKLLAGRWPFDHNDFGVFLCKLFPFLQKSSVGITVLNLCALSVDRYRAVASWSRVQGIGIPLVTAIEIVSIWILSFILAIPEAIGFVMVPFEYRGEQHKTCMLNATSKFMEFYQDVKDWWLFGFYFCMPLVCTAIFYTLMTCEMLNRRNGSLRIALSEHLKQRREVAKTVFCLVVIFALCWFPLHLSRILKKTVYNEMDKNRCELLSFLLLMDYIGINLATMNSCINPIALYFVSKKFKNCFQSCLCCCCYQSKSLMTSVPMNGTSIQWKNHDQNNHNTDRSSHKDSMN
Kind of test: Inhibition of I-ET-1 binding to human Endothelin A receptor.

Test [1] concerns the target T2, Endothelin receptor type B (Homo sapiens, UniProt P24530).
T2 sequence (P24530 whole entry): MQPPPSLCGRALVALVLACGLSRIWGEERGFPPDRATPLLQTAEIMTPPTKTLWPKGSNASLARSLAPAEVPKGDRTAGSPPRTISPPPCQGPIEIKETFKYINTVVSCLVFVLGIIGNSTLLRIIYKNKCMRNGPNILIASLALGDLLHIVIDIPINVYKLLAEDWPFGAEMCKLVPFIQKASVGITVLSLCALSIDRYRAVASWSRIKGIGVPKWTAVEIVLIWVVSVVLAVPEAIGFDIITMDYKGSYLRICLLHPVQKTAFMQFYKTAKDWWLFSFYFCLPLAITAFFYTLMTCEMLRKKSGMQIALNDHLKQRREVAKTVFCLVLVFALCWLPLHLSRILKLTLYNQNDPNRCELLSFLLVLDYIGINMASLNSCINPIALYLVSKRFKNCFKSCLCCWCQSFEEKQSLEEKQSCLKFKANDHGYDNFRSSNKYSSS
Kind of test: Inhibition of I-ET-1 binding to human Endothelin B receptor.

Consider `Cc1cc(C)c(OCc2sccc2S(=O)(=O)Nc2onc(C)c2Br)c(C)c1`, for which the IC50 at Endothelin-1 receptor was determined as 62 nM; in test [1], 3070 nM.

On to `CCCc1cc2c(cc1OCc1sccc1S(=O)(=O)Nc1onc(C)c1Br)OCO2`, for which the IC50 at Endothelin-1 receptor was 104 nM; in test [1], 335 nM.

With `Cc1noc(NS(=O)(=O)c2sccc2COc2ccc3c(c2)OCO3)c1Br`, the IC50 at Endothelin-1 receptor came out at 513 nM; in test [1], 9550 nM. Consider `Cc1noc(NS(=O)(=O)c2ccsc2COc2ccc3c(c2)OCO3)c1Br`, for which the half-maximal inhibitory concentration (IC50) was found to be 299 nM on Endothelin-1 receptor and 5930 nM in test [1].

In the case of `Cc1noc(NS(=O)(=O)c2ccsc2COc2cc3c(cc2Cl)OCO3)c1Br`, the IC50 on Endothelin-1 receptor stood at 129 nM; in test [1] it was 765 nM. Regarding `Cc1cc(C)c(OCc2ccsc2S(=O)(=O)Nc2onc(C)c2Br)c(C)c1`, the IC50 was determined as 54 nM at Endothelin-1 receptor and 4280 nM in test [1].

Regarding `Cc1ccc(OCc2sccc2S(=O)(=O)Nc2onc(C)c2Br)cc1`, in test [1], the IC50 was 15600 nM. Turning to `Cc1ccc(OCc2ccsc2S(=O)(=O)Nc2onc(C)c2Br)c(C)c1`, the IC50 in test [1] was found to be 7270 nM. Consider `CCCc1cc2c(cc1OCc1ccsc1S(=O)(=O)Nc1onc(C)c1Br)OCO2`, for which the figures for the IC50 (at Endothelin-1 receptor; in test [1]) were 134 nM and 1300 nM, respectively.

The values above are taken from ChEMBL document CHEMBL1130366, “Search for surrogates: A study of endothelin receptor antagonist structure activity relationships” (Bioorg Med Chem Lett, 1997).
